The values that follow come from ChEMBL document CHEMBL1149344, “Discovery of aminoquinazolines as potent, orally bioavailable inhibitors of Lck: synthesis, SAR, and in vivo anti-inflammatory activity” (J Med Chem, 2006).

The IC50 is the concentration at which inhibition is half-maximal. For orientation: solubility means how much of the substance goes into solution per volume.

In brackets after ≈: the same amount, converted by molar mass.

The test system of data set [1] is T-cell. The experiment in a line: Inhibition of human T cell proliferation by mixed lymphocyte reaction.
The target in data set [2] is Mitogen-activated protein kinase 14 (Homo sapiens, UniProt Q16539). In words: Inhibition of p38-alpha by HTRF kinase assay. On the technique in general: TR-FRET usually uses a lanthanide donor and a delayed reading to cut background.
Data set [3] deals with T1, Tyrosine-protein kinase JAK3 (Homo sapiens, UniProt P52333).
T1 sequence (P52333 whole entry): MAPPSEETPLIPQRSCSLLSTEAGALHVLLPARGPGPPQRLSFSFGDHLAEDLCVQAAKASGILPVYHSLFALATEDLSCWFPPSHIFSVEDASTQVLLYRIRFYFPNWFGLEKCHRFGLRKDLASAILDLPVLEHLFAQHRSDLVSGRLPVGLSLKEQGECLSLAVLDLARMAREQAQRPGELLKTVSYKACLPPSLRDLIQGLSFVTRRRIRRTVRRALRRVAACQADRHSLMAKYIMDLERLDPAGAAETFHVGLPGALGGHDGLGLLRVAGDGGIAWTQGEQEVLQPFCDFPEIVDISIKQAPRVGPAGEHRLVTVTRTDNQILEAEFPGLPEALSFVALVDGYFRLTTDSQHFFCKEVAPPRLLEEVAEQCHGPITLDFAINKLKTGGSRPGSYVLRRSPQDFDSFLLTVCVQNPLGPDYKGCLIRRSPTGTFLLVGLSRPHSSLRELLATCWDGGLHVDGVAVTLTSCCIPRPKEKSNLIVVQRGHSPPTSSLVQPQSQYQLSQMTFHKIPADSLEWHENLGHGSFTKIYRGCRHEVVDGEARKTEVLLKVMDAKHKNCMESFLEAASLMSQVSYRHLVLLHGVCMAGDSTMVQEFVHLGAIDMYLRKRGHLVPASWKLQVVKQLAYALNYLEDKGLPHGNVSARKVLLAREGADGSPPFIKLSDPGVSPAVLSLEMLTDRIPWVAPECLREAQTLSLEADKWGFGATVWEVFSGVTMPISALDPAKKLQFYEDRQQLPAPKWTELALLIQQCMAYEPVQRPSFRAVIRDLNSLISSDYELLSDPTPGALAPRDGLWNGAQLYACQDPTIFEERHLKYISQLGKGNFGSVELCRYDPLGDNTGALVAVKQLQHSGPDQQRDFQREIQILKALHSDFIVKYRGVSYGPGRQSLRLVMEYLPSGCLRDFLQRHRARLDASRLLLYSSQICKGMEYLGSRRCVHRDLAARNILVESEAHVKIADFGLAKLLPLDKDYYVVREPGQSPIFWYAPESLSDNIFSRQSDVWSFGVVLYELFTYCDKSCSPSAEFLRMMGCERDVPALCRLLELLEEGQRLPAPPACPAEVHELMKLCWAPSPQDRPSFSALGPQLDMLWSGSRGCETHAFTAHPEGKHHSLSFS
In words: Inhibition of Jak3 by HTRF kinase assay.

Data set [4] addresses Vascular endothelial growth factor receptor 2 (Homo sapiens, UniProt P35968). In words: Inhibition of KDR by HTRF kinase assay.
Data set [5] addresses Tyrosine-protein kinase Lck (Homo sapiens, UniProt P06239).
Data set [6] concerns T-cell. In words: Inhibition of anti CD3/CD28-induced IL2 secretion in human T cells. The format is functional, cell-based.
The nature of data set [7]: Solubility in fasted state simulated intestinal fluid at pH 6.8. Format: physicochemical.
For the next data set, the species on record is Homo sapiens. The experiment in a line: Inhibition of anti CD3-induced IL2 production in human whole blood. Format: functional.

Sequence of Vascular endothelial growth factor receptor 2 (P35968 whole entry): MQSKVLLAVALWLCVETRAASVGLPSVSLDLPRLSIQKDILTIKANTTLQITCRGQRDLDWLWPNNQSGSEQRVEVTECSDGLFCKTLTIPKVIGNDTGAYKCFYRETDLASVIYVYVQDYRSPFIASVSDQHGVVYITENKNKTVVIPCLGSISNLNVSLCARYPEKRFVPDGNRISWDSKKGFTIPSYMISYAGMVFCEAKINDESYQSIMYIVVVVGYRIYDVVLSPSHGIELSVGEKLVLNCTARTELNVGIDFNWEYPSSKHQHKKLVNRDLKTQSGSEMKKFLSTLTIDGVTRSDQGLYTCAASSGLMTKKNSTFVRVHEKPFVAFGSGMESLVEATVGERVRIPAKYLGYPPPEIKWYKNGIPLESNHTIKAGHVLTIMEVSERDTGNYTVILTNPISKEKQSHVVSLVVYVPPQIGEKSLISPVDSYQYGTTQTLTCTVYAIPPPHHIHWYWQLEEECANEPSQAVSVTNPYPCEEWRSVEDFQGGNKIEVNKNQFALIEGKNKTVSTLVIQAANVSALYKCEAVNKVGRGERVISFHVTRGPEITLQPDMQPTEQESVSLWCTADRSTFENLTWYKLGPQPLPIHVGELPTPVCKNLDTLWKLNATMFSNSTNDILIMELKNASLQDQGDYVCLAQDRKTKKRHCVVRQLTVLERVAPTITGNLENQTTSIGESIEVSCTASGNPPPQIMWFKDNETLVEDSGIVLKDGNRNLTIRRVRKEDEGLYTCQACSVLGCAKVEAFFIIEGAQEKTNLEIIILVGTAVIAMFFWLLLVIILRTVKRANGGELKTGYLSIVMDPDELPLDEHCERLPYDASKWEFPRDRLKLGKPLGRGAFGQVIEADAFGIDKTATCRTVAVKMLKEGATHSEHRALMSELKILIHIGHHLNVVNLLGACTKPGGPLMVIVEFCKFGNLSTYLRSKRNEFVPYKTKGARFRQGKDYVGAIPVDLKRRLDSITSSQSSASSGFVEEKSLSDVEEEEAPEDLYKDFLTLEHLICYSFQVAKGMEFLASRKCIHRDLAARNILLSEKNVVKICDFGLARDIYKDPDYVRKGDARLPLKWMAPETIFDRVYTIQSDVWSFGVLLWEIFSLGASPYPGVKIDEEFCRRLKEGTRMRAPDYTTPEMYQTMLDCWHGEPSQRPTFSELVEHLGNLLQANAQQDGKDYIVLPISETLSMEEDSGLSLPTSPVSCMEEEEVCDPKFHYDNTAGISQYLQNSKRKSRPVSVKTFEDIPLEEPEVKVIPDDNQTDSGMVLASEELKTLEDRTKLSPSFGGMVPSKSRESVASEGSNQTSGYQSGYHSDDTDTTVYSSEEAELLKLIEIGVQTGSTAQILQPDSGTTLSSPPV
Sequence of Mitogen-activated protein kinase 14 (Q16539 whole entry): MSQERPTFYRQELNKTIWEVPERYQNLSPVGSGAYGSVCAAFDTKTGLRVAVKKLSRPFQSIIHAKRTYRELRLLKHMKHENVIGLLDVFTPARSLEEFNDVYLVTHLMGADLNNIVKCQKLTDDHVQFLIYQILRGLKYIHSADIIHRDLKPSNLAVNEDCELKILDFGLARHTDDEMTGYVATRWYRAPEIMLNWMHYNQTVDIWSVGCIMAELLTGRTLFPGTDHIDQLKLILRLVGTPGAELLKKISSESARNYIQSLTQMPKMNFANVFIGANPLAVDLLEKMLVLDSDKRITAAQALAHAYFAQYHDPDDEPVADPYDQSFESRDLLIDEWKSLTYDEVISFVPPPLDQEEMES
Sequence of Tyrosine-protein kinase Lck (P06239 whole entry): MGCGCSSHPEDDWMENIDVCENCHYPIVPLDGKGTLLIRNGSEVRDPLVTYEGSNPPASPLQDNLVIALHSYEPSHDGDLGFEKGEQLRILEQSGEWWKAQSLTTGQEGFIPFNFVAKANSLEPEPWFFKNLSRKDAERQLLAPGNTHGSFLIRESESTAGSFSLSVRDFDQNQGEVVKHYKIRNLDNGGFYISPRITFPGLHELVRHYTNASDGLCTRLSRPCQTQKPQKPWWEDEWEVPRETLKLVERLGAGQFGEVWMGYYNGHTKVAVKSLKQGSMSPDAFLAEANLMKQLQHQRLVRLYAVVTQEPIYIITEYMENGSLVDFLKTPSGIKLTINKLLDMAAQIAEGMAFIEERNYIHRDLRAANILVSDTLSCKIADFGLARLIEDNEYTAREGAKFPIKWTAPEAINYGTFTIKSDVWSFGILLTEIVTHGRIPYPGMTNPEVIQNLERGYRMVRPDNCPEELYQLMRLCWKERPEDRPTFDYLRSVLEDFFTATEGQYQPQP

For `CNc1ncc2cc(-c3cc(NC(=O)c4cccc(C(F)(F)F)c4)ccc3C)ccc2n1`, the IC50 with T-cell [1] came out at 167 nM; in data set [2], 0.9 nM; in data set [3] it was 154 nM; in data set [4], 5 nM; in data set [5], 0.3 nM.

Turning to `Cc1ccc(C(=O)Nc2cccc(C(F)(F)F)c2C)cc1-c1ccc2nc(NC3CC3)ncc2c1`, the IC50 was determined as 73 nM with T-cell [1]; 2 nM in data set [2]; 331 nM in data set [3]; 180 nM in the data set on T-cell [6]; 6 nM in data set [4]; 0.07 nM in data set [5]. For the same compound, the solubility in data set [7] (read-out: Solubility) was 13 µg/mL (≈ 27.3 µM).

For the compound `CNc1ncc2cc(-c3cc(C(=O)Nc4ccc(Cl)c(C(F)(F)F)c4C)ccc3C)ccc2n1`, the IC50 came out at 1700 nM with T-cell [1]; 139 nM in data set [2]; 106 nM in data set [3]; 21 nM in data set [4]; 3 nM in data set [5].

As for `Cc1ccc(C(=O)Nc2cccc(C(F)(F)F)c2C)cc1-c1ccc2nc(N(C)CCCN3CCOCC3)ncc2c1`, the IC50 in the data set on T-cell [1] was 844 nM; in data set [2], 65 nM; in data set [3] it was over 25000 nM; in data set [4] it was 292 nM; in data set [5] it was 14 nM. Further, the solubility in data set [7] (read-out: Solubility) is over 200 µg/mL.

Compound `Nc1ncc2cc(-c3cc(C(=O)Nc4cccc(C(F)(F)F)c4)ccc3Cl)ccc2n1` showed an IC50 with T-cell [1] of 22 nM.

As for `CCN(CC)CC(=O)Nc1ccc(C(F)(F)F)cc1NC(=O)c1ccc(C)c(-c2ccc3nc(NC)ncc3c2)c1`, the IC50 is 427 nM in the data set with T-cell [1], 76 nM in data set [2], over 8330 nM in data set [3] and 306 nM in data set [4].

For `Cc1ccc(C(=O)Nc2cccc(C(F)(F)F)c2C)cc1-c1ccc2nc(NCCN3CCOCC3)ncc2c1`, the IC50 in the data set with T-cell [1] worked out at 357 nM; in data set [2], 40 nM; in data set [3], 626 nM; in data set [4] it was 15 nM; in data set [5], 3 nM. For the same compound, in data set [7] (read-out: Solubility), the solubility is 175 µg/mL (≈ 318 µM).

Regarding `Cc1cc(F)c(C(=O)Nc2cccc(C(F)(F)F)c2)cc1-c1ccc2nc(N)ncc2c1`, it took 261 nM to reach half-maximal inhibition in the data set with T-cell [1] (IC50).

For the compound `CNc1ncc2cc(-c3cc(Nc4nc5ccc(C(F)(F)F)cc5[nH]4)ccc3C)ccc2n1`, the IC50 is 277 nM in data set [2], over 25000 nM in data set [3], 1440 nM in data set [4] and 297 nM in data set [5].

Regarding `CNc1ncc2cc(-c3cc(C(=O)Nc4cc(C(F)(F)F)ccc4NC(=O)NCCN4CCOCC4)ccc3C)ccc2n1`, the half-inhibitory concentration (IC50) in the data set on T-cell [1] is 52 nM; in data set [2] it was 31 nM; in data set [3], 722 nM; in data set [4], 47 nM; in data set [5], 0.4 nM.

For the compound `CNc1ncc2cc(-c3cc(C(=O)Nc4cc(C(F)(F)F)ccc4N4CCCCC4)ccc3C)ccc2n1`, the IC50 came out at 639 nM in the data set with T-cell [1]; 168 nM in data set [2]; 253 nM in data set [3]; 1410 nM in data set [4]; 48 nM in data set [5].

Consider `Cc1ccc(C(=O)Nc2cccc(C(F)(F)F)c2C)cc1-c1ccc2nc(NCCCN3CCOCC3)ncc2c1`, for which the IC50 was 5 nM with T-cell [1]; 25 nM in data set [2]; 2190 nM in data set [3]; 66 nM with T-cell [6]; 7 nM in data set [4]; 0.4 nM in data set [5]. The solubility in data set [7] (read-out: Solubility) is 182 µg/mL (≈ 323 µM).

With `Cc1ccc(C(=O)Nc2cccc(C(F)(F)F)c2C)cc1-c1ccc2nc(NCCN3CCCC3)ncc2c1`, the IC50 was 246 nM in the data set on T-cell [1]; 7 nM in data set [2]; over 8330 nM in data set [3]; 461 nM in the data set with T-cell [6]; 246 nM in data set [4]; 6 nM in data set [5]. The compound also showed an Activity in the data set listed under Homo sapiens of 8.4 µM. The solubility in data set [7] (read-out: Solubility) is 172 µg/mL (≈ 322 µM).

Consider `CNc1ncc2cc(-c3cc(C(=O)Nc4ccc(Cl)c(C(F)(F)F)c4)ccc3C)ccc2n1`, for which the half-maximal inhibitory concentration (IC50) in the data set with T-cell [1] is 133 nM; in data set [2], 14 nM; in data set [3] it was 16 nM; in the data set with T-cell [6] it was 86 nM; in data set [4], 3 nM; in data set [5], 0.5 nM.

Compound `Nc1ncc2cc(-c3cccc(C(=O)Nc4cccc(C(F)(F)F)c4)c3)ccc2n1` yielded an IC50 in the data set with T-cell [1] of 2480 nM.

`Cc1ccc(C(=O)Nc2cccc(C(F)(F)F)c2C)cc1-c1ccc2nc(NC3CCN(C)CC3)ncc2c1`: the 50% inhibitory concentration (IC50) in the data set on T-cell [1] was 152 nM; in data set [2], 2 nM; in data set [3], over 8330 nM; in the data set on T-cell [6], 745 nM; in data set [4] it was 103 nM; in data set [5] it was 0.6 nM. The compound also showed an Activity in the data set listed under Homo sapiens of 7.3 µM. The solubility in data set [7] (read-out: Solubility) is 171 µg/mL (≈ 320 µM).

`CNc1ncc2cc(-c3cc(C(=O)Nc4cccc(C(F)(F)F)c4)c(F)cc3C)ccc2n1` registered an IC50 with T-cell [1] of 254 nM.

With `Cc1ccc(C(=O)Nc2cccc(C(F)(F)F)c2C)cc1-c1ccc2nc(Nc3ccccc3)ncc2c1`, the IC50 in the data set with T-cell [1] worked out at 44 nM; in data set [2], 57 nM; in data set [3], 46 nM; in data set [4], 4 nM; in data set [5], 1 nM.

Regarding `Cc1ccccc1-c1ccc2nc(N)ncc2c1`, the IC50 was 3900 nM in data set [2], 9820 nM in data set [3], 4970 nM in data set [4] and 94 nM in data set [5].

`CNc1ncc2cc(-c3cc(C(=O)Nc4cccc(C(F)(F)F)c4C)ccc3C)ccc2n1`: the IC50 with T-cell [1] is 176 nM; in data set [2], 50 nM; in data set [3], 133 nM; in the data set on T-cell [6] it was 160 nM; in data set [4], 8 nM; in data set [5], 0.01 nM. This compound registered a solubility in data set [7] of 19 µg/mL (≈ 42.2 µM).

`Cc1ccc(C(=O)Nc2cccc(C(F)(F)F)c2C)cc1-c1ccc2nc(NCCN3CCCCC3)ncc2c1`: the IC50 in the data set on T-cell [1] was 667 nM; in data set [2], 9 nM; in data set [3], over 25000 nM; in data set [4], 173 nM; in data set [5] it was 6 nM. Further, the solubility in data set [7] (read-out: Solubility) was over 200 µg/mL.

On to `CNc1ncc2cc(-c3cc(C(=O)Nc4cc(C(F)(F)F)ccc4N4CC(C)(C)C4=O)ccc3C)ccc2n1`, for which the IC50 in the data set on T-cell [1] amounted to 17 nM; in data set [2] it was 172 nM; in data set [3] it was 193 nM; with T-cell [6] it was 89 nM; in data set [4] it was 360 nM; in data set [5], 2 nM. This compound yielded an Activity in the data set listed under Homo sapiens of 2.31 µM.

For `Nc1ncc2cc(-c3ccc(F)c(C(=O)Nc4cccc(C(F)(F)F)c4)c3)ccc2n1`, the IC50 in the data set with T-cell [1] was over 20000 nM.

Take `CNc1ncc2cc(-c3cc(C(=O)Nc4cc(C(F)(F)F)ccc4N4CCN(C)C4=O)ccc3C)ccc2n1`: the half-maximal inhibitory concentration (IC50) was 499 nM in the data set on T-cell [1]; 4 nM in data set [2]; 987 nM in data set [3]; 461 nM in data set [4]; 2 nM in data set [5].

In the case of `CNc1ncc2cc(-c3cccc(C(=O)Nc4cccc(C(F)(F)F)c4)c3)ccc2n1`, 550 nM corresponded to half-maximal inhibition in the data set on T-cell [1] (IC50).

With `CNc1ncc2cc(-c3cc(NC(=O)Nc4cccc(C(F)(F)F)c4)ccc3C)ccc2n1`, the half-maximal inhibitory concentration (IC50) was 280 nM in the data set on T-cell [1]; 5 nM in data set [2]; 1140 nM in data set [3]; 52 nM in data set [4]; 8 nM in data set [5].

Take `CNc1ncc2cc(-c3cc(C(=O)Nc4ccc(OC5CCN(C)CC5)cc4)ccc3C)ccc2n1`: the half-maximal inhibitory concentration (IC50) in the data set on T-cell [1] is 230 nM; in data set [2], 93 nM; in data set [3], over 8330 nM; in the data set with T-cell [6], 223 nM; in data set [4], 8 nM; in data set [5], 1 nM.

Consider `CNc1ncc2cc(-c3cc(C(=O)Nc4cccc5c4CCC5)ccc3C)ccc2n1`, for which the IC50 in the data set on T-cell [1] worked out at 1660 nM; in data set [2] it was 21 nM; in data set [3], 1340 nM; in data set [4] it was 48 nM; in data set [5] it was 0.3 nM.
